Test results from PubChem BioAssay (NCI).
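Method: 48-hour compound exposure of cells in 96-well plates, five concentrations, linear interpolation of endpoints. GI50 = concentration required for 50% inhibition of growth. TGI: concentration producing complete growth inhibition.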

Legend:
Assay in all cases: DTP human tumour cell line panel, 48 h
HCT-116 colon = system: HCT-116 colon
HOP-62 NSCLC = system: HOP-62 NSCLC
U251 CNS = system: U251 CNS
CAKI-1 renal = system: CAKI-1 renal
T-47D breast = system: T-47D breast
HCT-15 colon = system: HCT-15 colon
UACC-62 melanoma = system: UACC-62 melanoma
SF-295 CNS = system: SF-295 CNS
LOX IMVI melanoma = system: LOX IMVI melanoma
NCI-H226 lung = system: NCI-H226 lung
MCF7 breast = system: MCF7 breast

Structure (SMILES)	TGI (HCT-116 colon) [µM]	TGI (HOP-62 NSCLC) [µM]	TGI (U251 CNS) [µM]	TGI (CAKI-1 renal) [µM]	TGI (T-47D breast) [µM]	TGI (HCT-15 colon) [µM]	TGI (UACC-62 melanoma) [µM]	TGI (SF-295 CNS) [µM]	TGI (LOX IMVI melanoma) [µM]	TGI (NCI-H226 lung) [µM]	TGI (MCF7 breast) [µM]	GI50 (LOX IMVI melanoma) [µM]
COC(OC)C(O)C1OC=CC1n1cnc2c(N)ncnc21 (stereo not given)	> 100	> 100	> 100	> 100	> 100	> 100	> 100	> 100	> 100	> 100	> 100	–
CC1(C)[C@@H]2C[C@H]1c1cnc(-c3ccccn3)cc1C2[C@@H]1c2cc(-c3ccccn3)ncc2[C@@H]2C[C@H]1C2(C)C (stereo not given in full)	> 100	> 100	> 100	> 100	> 100	> 100	> 100	> 100	> 100	> 100	> 100	–
O=C1OS2(OCc3cccc4cccc2c34)c2ccccc21 (stereo not given)	> 100	> 100	> 100	> 100	> 100	> 100	> 100	> 100	> 100	> 100	> 100	–
O=C1C=CC(=O)c2ncccc21	4.27	28.6	17	4.02	5.18	5.72	9.3	23.1	6.32	32.4	25.8	–
O=C1[C@@H]2Cc3c([nH]c4ccccc34)C(C3CCCCC3)N2C(=O)[C@@H]2CCCN12 (stereo not given in full)	74.5	> 100	> 100	80.8	> 100	> 100	49	61.1	73.9	> 100	> 100	–
O=C1c2ccccc2CC12Cc1ccc3c(c1C2)CCC3 (stereo not given)	40.1	69.5	38	> 100	> 100	31.6	60.5	76.5	24.8	64.7	39.6	–
CC(C)(C)N1Cc2ccccc2/C(=C/Sc2ccccc2)C1=O	19.8	33.8	27.3	30.7	45.3	37	24.3	33.8	11.3	25.9	24.3	–
N#CCc1nc(C#N)c(N)o1	> 100	> 100	> 100	> 100	> 100	> 100	> 100	> 100	> 100	> 100	> 100	> 100
NC(N)=N/N=C/c1nc2sccn2c1[N+](=O)[O-]	59.6	> 100	> 100	> 100	65.1	> 100	> 100	> 100	56.1	> 100	36.4	–
CCCCCCCCCCCCCCCCNc1nc(=O)n(C2CC(O)C(CO)O2)cc1F (stereo not given)	23.5	20	33.1	23.3	25.3	26.1	22.8	30.1	24.1	10.8	19.9	–
CC[N+](C)(CC)CCN1C(=O)c2ccccc2S1(=O)=O	> 100	> 100	> 100	> 100	> 100	> 100	> 100	> 100	> 100	> 100	> 100	–
CC(C)(C)OC(=O)N1C(OP(=O)(Oc2ccccc2)Oc2ccccc2)=COc2cccnc21	> 100	> 100	> 100	> 100	94.2	> 100	> 100	> 100	85.3	> 100	> 100	–
CCN(CC)CCCNc1ccc2nnn3c4ccc(O)cc4c(=O)c1c23	16.3	22.6	7.61	17	39.9	19.4	30.9	22.8	13.1	22.4	34	–
CN1C2CC(=O)CC1[C@@H]1OC(c3ccccc3)O[C@H]21 (stereo not given in full)	> 100	> 100	> 100	> 100	> 100	> 100	> 100	> 100	> 100	> 100	> 100	–
